Experiments:
Assay type in all cases: in vivo, human
eye of subjects [1] = experiment: Presbyopia: near visual acuity, Snellen card at 40 cm; conditions: 45 to 60 minutes after dosing
Description: (§1) A 10 μl micro-dose of a 1% pilocarpine solution was self-administered using an electromagnetic actuated fluid delivery device, e.g., as described above, by three subjects to their own eye. The age range of the subjects was 52 years to 68 years, and all subjects were male. The pilocarpine micro-dose was self-administered by the subjects.
(§2) Baseline, pre-dose values of pupil diameter and near visual acuity in both eyes prior to dosing was measured for all subjects, and then following the baseline measurements, the subjects were dosed in only one eye (the eye with the poorer visual acuity) with the micro-dose pilocarpine solution. Approximately 45 to 60 minutes after dosing, pupil diameter and near visual acuity were again tested. Near visual acuity was measured using a Snellen card at a distance of 40 cm. A tabulation of results is given below in Table A.

eye of subjects [2] = experiment: Presbyopia: pupil diameter after self-administered pilocarpine micro-dose
Description: as §1, §2

[3] = system: patients diagnosed with primary open angle glaucoma; experiment: Trial 2: intraocular pressure reduction, Goldmann applanation tonometry; conditions: for Post-treatment IOP, Mean: 0.005% w/v, N=18 eyes; for Post-treatment IOP, Mean / average decrease in IOP measured per patient / Post-treatment IOP, Median: approx. 8 hours after dosing; for Post-treatment IOP, Median: baseline median 18.0; for Total pressure reduction, Mean / Total pressure reduction, Median: signed change from baseline
Description: Trial 2 compared the efficacy (dose volume equivalence) of 0.005% w/v latanoprost for intraocular pressure reduction when delivered via AcuStream™ (pre-trial calibration volume=9.2 μl) versus the standard eye dropper for topical drug delivery (approximate volume=30 μl).
Patients included in Trial 2 have previously been diagnosed with primary open angle glaucoma on the basis of intraocular pressure and visual field testing, fundus examination or optical coherence tomography (OCT) data and are currently on prostaglandin analog medical therapy. Patients with corneal abnormalities that would interfere with accurate IOP measurements with applanation tonometry, use of an oral or topical ophthalmic steroids within the past 14 days from screening date, any active ocular surface or anterior segment disease, or progressive field loss during the past year were excluded from the study. Thirteen men and five women participated in the trial.
Recruited patients were taken off medical therapy for a period of 3-4 weeks prior to the study to allow drug “wash out”, thereby elevating their IOPs to pre-treatment levels which was confirmed by examination of the patients' chart history. Patients were randomly assigned as “test” (AcuStream™), or “control” (standard eye dropper). The mean age of the control group and test group were 61.0 years and 65.2 years, respectively.
The patients assigned to either the “test” or “control” group by means of a random numbers table in order to mitigate any potential cross-over effects that could confound data interpretation. An odd number dictated that the patient was in the test group, while even-numbered patients were in the control group.
After performing slit lamp examinations on each patient to verify eligibility and obtaining informed consent, intraocular pressure (IOP) was measured by a sole experienced examiner who was blind to the randomized conditions. A pre-calibrated Goldmann applanation tonometer coupled to a Haag-Streit 900 EQ slit lamp was used to conduct baseline IOP measurements. Once baseline IOP data were verified to be equivalent to pre-medical therapy levels (based on patient's treatment history), the patient then continued to the dosing stage of the study.
Latanoprost solution was administered by a sole ophthalmologist to both eyes of each patient, based on the pre-determined randomized condition.

[4] = standard eye dropper control group

For `CC[C@@H]1C(=O)OC[C@@H]1Cc1cncn1C` [pilocarpine], the “Median dosed eye near visual acuity” value (eye of subjects [1]; baseline median 20/30) was 20/20, the “# of lines change in visual acuity (mean improvement)” value (eye of subjects [1]; dosed eye, 3 subjects) was 2 lines and the “Mean change in dosed pupil dia” value (eye of subjects [2]; dosed eye, 10 μl micro-dose of 1% solution, 45 to 60 minutes after dosing, 3 subjects) was −0.7 mm. The “Mean post-dose pupil dia” value (eye of subjects [2]; dosed eye, 10 μl micro-dose of 1% solution, 45 to 60 minutes after dosing, 3 subjects, baseline mean 2.9 mm) was 2.2 mm, the “mean reduction in pupil diameter” value (eye of subjects [2]; dosed eye, 10 μl micro-dose of 1% solution, all subjects) was 0.70 mm and the “miotic effect in non-dosed eye” value (eye of subjects [2]; non-dosed contralateral eye) was “no miotic effect”. The “Mean change in non-dosed pupil dia” value (eye of subjects [2]; non-dosed contralateral eye, 45 to 60 minutes after dosing) was 0.2 mm and the “Mean non-dose pupil dia” value (eye of subjects [2]; non-dosed contralateral eye, 45 to 60 minutes after dosing, baseline mean 2.8 mm) was 3.0 mm.
For `CC(C)OC(=O)CCC/C=C\C[C@@H]1[C@@H](CC[C@@H](O)CCc2ccccc2)[C@H](O)C[C@@H]1O` [latanoprost], the “difference in IOP reduction between groups” value ([3]; AcuStream 9.2 μl versus standard eye dropper 30 μl) was “no statistically significant differences”, the “Post-treatment IOP, Mean” value ([3]; AcuStream test group, 9.2 μl, baseline 18.6) was 13.6 mm Hg and the “average decrease in IOP measured per patient” value ([3]; AcuStream test group) was 5.0 mm Hg. For the same compound, the “Post-treatment IOP, Median” value ([3]; AcuStream test group) was 13.0 mm Hg, the “Total pressure reduction, Mean” value ([3]; AcuStream test group) was −5.0 mm Hg and the “Total pressure reduction, Median” value ([3]; AcuStream test group) was −5.0 mm Hg. For the same compound, the “post-instillation IOP (OD), single patient outlier” value ([3]; control group, baseline IOP 30 mm Hg) was 17 mm Hg, the “equivalence of 9.2 μl AcuStream dose to 30 μl standard eye drop, intraocular pressure reduction” value ([3]; latanoprost 0.005% w/v) was “pharmacodynamic equivalence” and the “Post-treatment IOP, Mean” value ([3]; standard eye dropper control group, approx. 30 μl, baseline 17.7) was 13.3 mm Hg. The “average decrease in IOP measured per patient” value [3, 4] was 4.3 mm Hg, the “Post-treatment IOP, Median” value [3, 4] was 12.0 mm Hg and the “Total pressure reduction, Mean” value [3, 4] was −4.3 mm Hg. For the same compound, the “Total pressure reduction, Median” value [3, 4] was −4.0 mm Hg.

From patent publication US20190314196A1, “Topical Ocular Delivery Methods and Devices for Use in the Same” (Kedalion Therapeutics, Inc., priority 2018, published 2019)
